Experimental data published in patent US10434079B2, “Compositions and methods for the treatment of fatty acid metabolism disorders” (The Children's Hospital of Philadelphia, priority 2013, dated 2019).
Entries after “also recorded” stand apart in the source; their conditions may differ.

Legend:
ob/ob mice = test: Liver histology and liver/serum triglyceride concentrations in ob/ob mice; assay type: in vivo, mouse; conditions: GSNO-injected vs PBS-injected ob/ob mice
Excerpt: Formalin-fixed liver sections were stained with Trichrome Stain Kit (Sigma) according to the manufacturer's instructions. Triglycerides were extracted from liver according to the Folch method (Folch et al. (1957) J. Biol. Chem., 226:497-509). Serum and liver triglyceride concentrations were quantified with a triglyceride quantification kit following the manufacturer's instructions (Abcam). Leptin-deficient mice develop liver steatosis spontaneously under normal chow diet starting at 4 to 5 weeks of life that is characterized by a diminished rate of palmitate oxidation and accumulation of fat droplets in the form of triglycerides within the hepatocytes (Brix et al. (2002) Mol. Genet. Metab., 75:219-226; de Oliveira et al. (2008) J. Am. Coll. Nutr., 27:299-305). […] This significant reduction in the rate of palmitoyl-CoA oxidation indicated a deficiency in mitochondrial β-oxidation of fatty acids. […] GSNO was used to deliver nitric oxide equivalents because of the extensive use of this pharmacological agent in cellular models to modify proteins by S-nitrosylation […] cellular permeability (Hara et al. (2005) Nat. Cell Biol., 7:665-674; Chung et al. (2004) Science 304:1328-1331). […] Moreover, the restoration of palmitoyl-CoA oxidation in GSNO-injected ob/ob mice was associated with a significant reduction of the concentration of liver triglycerides. […]

wild-type VLCAD = target: T1, wild-type VLCAD (Mus musculus, UniProt P50544); test: Hepa 1 to 6 cells expressing FLAG-tagged wild-type VLCAD exposed to GSNO; assay type: cell-based
T1 construct: 3xFLAG (C); host or cells: Hepa 1 to 6 cells
T1 sequence (P50544 42-656): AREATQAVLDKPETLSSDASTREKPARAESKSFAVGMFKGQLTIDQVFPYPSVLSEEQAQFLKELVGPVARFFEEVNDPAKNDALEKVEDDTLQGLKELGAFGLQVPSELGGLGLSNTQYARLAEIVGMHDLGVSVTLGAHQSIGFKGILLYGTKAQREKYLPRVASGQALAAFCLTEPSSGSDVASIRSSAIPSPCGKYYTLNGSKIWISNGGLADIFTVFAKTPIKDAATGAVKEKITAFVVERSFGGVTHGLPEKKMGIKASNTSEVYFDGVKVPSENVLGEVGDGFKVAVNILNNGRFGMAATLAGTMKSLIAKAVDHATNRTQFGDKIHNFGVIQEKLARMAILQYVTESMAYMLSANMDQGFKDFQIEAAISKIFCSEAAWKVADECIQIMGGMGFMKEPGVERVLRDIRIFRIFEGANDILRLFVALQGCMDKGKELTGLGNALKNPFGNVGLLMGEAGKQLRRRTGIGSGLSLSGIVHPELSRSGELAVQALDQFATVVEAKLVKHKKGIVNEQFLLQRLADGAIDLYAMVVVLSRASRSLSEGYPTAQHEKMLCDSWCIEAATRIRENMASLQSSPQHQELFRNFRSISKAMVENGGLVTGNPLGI
Experimental: Liver homogenate (final concentration of 0.03 μg/μl) or cell lysate (final concentration of 0.09 μg/μl) in 100 mM potassium phosphate buffer (pH 7.2) containing 0.2% Triton X-100 and 0.1 mM EDTA was mixed with […] ferricenium ion, and the reaction was initiated by the addition of palmitoyl-CoA (the final volume of the assay was 130 μl). […] At least nine concentrations of palmitoyl-CoA, ranging from 0.015 to 2 mM, were used for the experimental determination of the apparent Vmax and KM of VLCAD for each animal. […] A unit of enzyme activity is defined as the amount of enzyme that causes the reduction of […] of ferricenium per minute at room temperature (ε=4.3 mM^−1 cm^−1 at 300 nm) (Izai et al. (1992) J. Biol. Chem., 267:1027-1033). […] The measurement of specific activity of VLCAD in liver homogenates (FIG. 2H) and cell lysates (FIG. 4) was performed in the presence of 0.25 and 0.125 mM palmitoyl-CoA, respectively.
Hepa 1 to 6 cells were grown in Dulbecco's modified Eagle's medium (DMEM) containing 10% fetal bovine serum, 2 mM glutamine, penicillin (100 U/ml), and streptomycin ([…]) at 37° C. in air with 5% CO2. Cells were plated at a density of 5×10^4 cells/cm^2 and cultured under normal conditions for 24 hours. Cells were transfected with FLAG®-tagged wild-type VLCAD or FLAG®-tagged C238A VLCAD with Lipofectamine® 2000 reagent (Life Technologies) according to the protocol provided by the manufacturer. Forty-eight hours after transfection, the growth medium was replaced with serum-free DMEM, and […] freshly prepared GSNO was added for 30 minutes, after which the cells were extensively washed with PBS. Cell lysates were obtained immediately or 60, 120, and 240 minutes after the removal of GSNO. The samples were protected from UV light exposure. Lysates were assayed for protein concentration, and equal amounts of protein per sample were used for organic mercury-assisted capture.

[1] = 60, 120, 240 minutes after removal of GSNO and washing

abundance of S-nitrosylated VLCAD after removal of GSNO (wild-type VLCAD; [1]): declined over time
enzymatic-specific activity after removal of GSNO (wild-type VLCAD; [1]): declined over time
VLCAD-specific activity (wild-type VLCAD; GSNO treatment, 0.125 mM palmitoyl-CoA): significantly higher
SMILES: N[C@@H](CCC(=O)N[C@@H](CSN=O)C(=O)NCC(=O)O)C(=O)O [GSNO, S-nitrosoglutathione]
fat deposits in liver slices (trichrome histology) (ob/ob mice): diminished fatty acid deposition; also recorded: fewer fat deposits
